According to PubChem BioAssay (NCI):
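These data come from cells grown in 96-well plates and exposed to compound for 48 hours at five concentrations. TGI: concentration producing complete growth inhibition.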

What was measured:
Test in all cases: NCI tumour cell line growth inhibition, 48 h
UACC-62 melanoma = test system: UACC-62 melanoma
HL-60(TB) leukemia = test system: HL-60(TB) leukemia
SK-MEL-28 melanoma = test system: SK-MEL-28 melanoma
TK-10 renal = test system: TK-10 renal
HT29 colon = test system: HT29 colon
DLD-1 colon = test system: DLD-1 colon
MALME-3M melanoma = test system: MALME-3M melanoma
M14 melanoma = test system: M14 melanoma
OVCAR-5 ovarian = test system: OVCAR-5 ovarian
SF-295 CNS = test system: SF-295 CNS
SW-620 colon = test system: SW-620 colon
OVCAR-8 ovarian = test system: OVCAR-8 ovarian
K-562 leukemia = test system: K-562 leukemia
NCI-H522 lung = test system: NCI-H522 lung
OVCAR-3 ovarian = test system: OVCAR-3 ovarian
OVCAR-4 ovarian = test system: OVCAR-4 ovarian
HCC-2998 colon = test system: HCC-2998 colon
SK-OV-3 ovarian = test system: SK-OV-3 ovarian
LXFL 529 NSCLC = test system: LXFL 529 NSCLC
IGROV1 ovarian = test system: IGROV1 ovarian
NCI-H23 lung = test system: NCI-H23 lung
KM20L2 colon = test system: KM20L2 colon
UO-31 renal = test system: UO-31 renal
786-0 renal = test system: 786-0 renal
MOLT-4 leukemia = test system: MOLT-4 leukemia
SNB-75 CNS = test system: SNB-75 CNS
HCT-116 colon = test system: HCT-116 colon
XF 498 CNS = test system: XF 498 CNS
U251 CNS = test system: U251 CNS
CCRF-CEM leukemia = test system: CCRF-CEM leukemia
SK-MEL-5 melanoma = test system: SK-MEL-5 melanoma
SN12C renal = test system: SN12C renal
HOP-62 NSCLC = test system: HOP-62 NSCLC
DMS 273 small cell lung = test system: DMS 273 small cell lung
EKVX NSCLC = test system: EKVX NSCLC
HCT-15 colon = test system: HCT-15 colon
SK-MEL-2 melanoma = test system: SK-MEL-2 melanoma
M19-MEL melanoma = test system: M19-MEL melanoma
CAKI-1 renal = test system: CAKI-1 renal
A549 NSCLC = test system: A549 NSCLC
SF-268 CNS = test system: SF-268 CNS
SF-539 CNS = test system: SF-539 CNS
A498 renal = test system: A498 renal
COLO 205 colon = test system: COLO 205 colon
RPMI-8226 leukemia = test system: RPMI-8226 leukemia
UACC-257 melanoma = test system: UACC-257 melanoma
DMS 114 small cell lung = test system: DMS 114 small cell lung
SNB-19 CNS = test system: SNB-19 CNS
KM12 colon = test system: KM12 colon
LOX IMVI melanoma = test system: LOX IMVI melanoma
SNB-78 CNS = test system: SNB-78 CNS

N#CCCN(c1ccc(/C=N/c2nc(-c3ccccc3)cs2)cc1)S(=O)(=O)c1ccccc1
TGI (UACC-62 melanoma): > 100 µM
TGI (HL-60(TB) leukemia): > 100 µM
TGI (SK-MEL-28 melanoma): > 100 µM
TGI (TK-10 renal): > 100 µM
TGI (HT29 colon): > 100 µM
TGI (DLD-1 colon): > 100 µM
TGI (MALME-3M melanoma): > 100 µM
TGI (M14 melanoma): > 100 µM
TGI (OVCAR-5 ovarian): > 100 µM
TGI (SF-295 CNS): > 100 µM
TGI (SW-620 colon): > 100 µM
TGI (OVCAR-8 ovarian): > 100 µM
TGI (K-562 leukemia): > 100 µM
TGI (NCI-H522 lung): > 100 µM
TGI (OVCAR-3 ovarian): > 100 µM
TGI (OVCAR-4 ovarian): > 100 µM
TGI (HCC-2998 colon): > 100 µM
TGI (SK-OV-3 ovarian): > 100 µM
TGI (LXFL 529 NSCLC): > 100 µM
TGI (IGROV1 ovarian): > 100 µM
TGI (NCI-H23 lung): > 100 µM
TGI (KM20L2 colon): > 100 µM
TGI (UO-31 renal): > 100 µM
TGI (786-0 renal): > 100 µM
TGI (MOLT-4 leukemia): > 100 µM
TGI (SNB-75 CNS): 93.5 µM
TGI (HCT-116 colon): > 100 µM
TGI (XF 498 CNS): > 100 µM
TGI (U251 CNS): > 100 µM
TGI (CCRF-CEM leukemia): > 100 µM
TGI (SK-MEL-5 melanoma): > 100 µM
TGI (SN12C renal): > 100 µM
TGI (HOP-62 NSCLC): > 100 µM
TGI (DMS 273 small cell lung): > 100 µM
TGI (EKVX NSCLC): > 100 µM
TGI (HCT-15 colon): > 100 µM
TGI (SK-MEL-2 melanoma): > 100 µM
TGI (M19-MEL melanoma): > 100 µM
TGI (CAKI-1 renal): > 100 µM
TGI (A549 NSCLC): > 100 µM
TGI (SF-268 CNS): > 100 µM
TGI (SF-539 CNS): > 100 µM
TGI (A498 renal): > 100 µM
TGI (COLO 205 colon): > 100 µM
TGI (RPMI-8226 leukemia): > 100 µM
TGI (UACC-257 melanoma): > 100 µM
TGI (DMS 114 small cell lung): > 100 µM
TGI (SNB-19 CNS): > 100 µM
TGI (KM12 colon): > 100 µM
TGI (LOX IMVI melanoma): > 100 µM
TGI (SNB-78 CNS): > 100 µM
